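Grown in 96-well plates, cells were treated for 48 hours with each compound at five concentrations. Insufficient inhibition: endpoint recorded as highest concentration tested. Here, GI50 denotes the concentration required for 50% inhibition of growth. At the TGI there is no net growth.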
Experiments:
Assay in all cases: NCI tumour cell line growth inhibition, 48 h
[1] = system: SNB-78 CNS
[2] = system: LXFL 529 NSCLC
[3] = system: HT29 colon
[4] = system: HL-60(TB) leukemia
[5] = system: OVCAR-4 ovarian
[6] = system: 786-0 renal
[7] = system: NCI-H23 lung
[8] = system: HOP-62 NSCLC
[9] = system: MDA-MB-231 breast
[10] = system: U251 CNS

| Compound | TGI [1] | GI50 [2] | TGI [2] | TGI [3] | TGI [4] | TGI [5] | TGI [6] | TGI [7] | TGI [8] | TGI [9] | TGI [10] |
| --- | --- | --- | --- | --- | --- | --- | --- | --- | --- | --- | --- |
| CCC1(O)C(=O)OCc2c1cc1n(c2=O)Cc2cc3c(N)cccc3nc2-1 (stereo not drawn) | > 51.7 µM | 0.307 µM | 4.71 µM | 22.8 µM | 0.111 µM | 11.6 µM | 0.0893 µM | 0.0806 µM | 0.0748 µM | 14.2 µM | 1.21 µM |
| CCC(C)(O)c1cn(-c2cccc(S(=O)(=O)O)c2)nn1 (stereo not drawn) | > 100 µM | – | > 100 µM | > 100 µM | > 100 µM | > 100 µM | > 100 µM | > 100 µM | > 100 µM | – | > 100 µM |
| Nc1c(-c2ccc(Br)cc2)[n+]([O-])c2ccccc2[n+]1[O-] | > 100 µM | – | > 100 µM | > 100 µM | > 100 µM | > 100 µM | > 100 µM | > 100 µM | > 100 µM | – | > 100 µM |
| CN(C)C(=S)SN(C)C(=O)Nc1ccccc1 | > 100 µM | – | > 100 µM | 24.4 µM | > 71.7 µM | 53.5 µM | > 74.7 µM | > 80.5 µM | > 100 µM | > 100 µM | > 93.8 µM |
| O=C1C2=C(CC3C(C2)C3(Br)Br)C(=O)C2=C1CC1C(C2)C1(Br)Br (stereo not drawn) | > 100 µM | – | > 100 µM | > 100 µM | > 100 µM | > 100 µM | > 100 µM | > 100 µM | > 100 µM | – | > 100 µM |
| N#Cc1cnsc1 | > 100 µM | – | > 100 µM | > 100 µM | > 100 µM | > 100 µM | > 100 µM | > 100 µM | > 100 µM | – | > 100 µM |
| NCCCNCCSSCCCCS(=O)O | > 100 µM | – | 92.2 µM | > 100 µM | 40.7 µM | 28.2 µM | > 100 µM | 43.5 µM | > 100 µM | – | > 100 µM |
| CCCCCCCCCCCCCCCCOP(=O)(O)Oc1ccc(/C=C\c2ccc(OP(=O)(O)OCCCCCCCCCCCCCCCC)cc2)cc1 | 91.9 µM | – | > 100 µM | > 100 µM | 53.1 µM | > 100 µM | > 100 µM | > 100 µM | > 100 µM | – | > 100 µM |
| Cc1cc(NS(=O)(=O)c2ccc(NC(=O)c3cccc4c(=O)c5ccccc5[nH]c34)cc2)no1 | > 100 µM | – | 89.2 µM | > 100 µM | 74.6 µM | > 100 µM | 38.2 µM | > 100 µM | 50.6 µM | – | > 100 µM |
| Cc1ccc(C(=O)/C=C/c2ccccc2O)c(C)c1 | > 100 µM | – | > 100 µM | 8.42 µM | > 100 µM | > 100 µM | > 100 µM | > 100 µM | > 100 µM | – | > 100 µM |
